Results on eight compounds are retold here after ChEMBL document CHEMBL1201862, “PubChem BioAssay data set” (2004).

The nature of test [1]: viability loss in human Jurkat cells – cell-based, luminescence, cytotoxicity control for P. falciparum gametocyte viability project, dose response (AID 1117277).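 Note: potency reflects loss of cellular ATP meaning fewer viable cells.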 The class given is functional.
Test [2] in a line: viability inhibitors of stage V gametocytes – luminescence, dose response (AID 1117278).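 Note: gametocytes exposed to compound for 24 hours.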 The class given is functional, cell-based.
Test [3] in a line: reduced cellular PGC1a acetyl-lysine signal – cell-based, cherry-picked samples, dose response (AID 720514).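 Note: potency may reflect raised or lowered acetylation signal.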 The class given is functional.
Test [4] in a line: blockers of bursicon-stimulated LGR2 cAMP reporter – cell-based, HEK293, CRE-luciferase reporter, cherry pick, set 2, dose response (AID 743343).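 Note: transfected cells were stimulated with diluted bursicon conditioned medium after compound addition.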 The test is classed as functional. (In general: A reporter such as luciferase makes a cellular process visible.)
The target in a further test is Paired box protein Pax-8 (Homo sapiens, UniProt Q06710). Briefly: PAX8 transcriptional activity inhibition in RMG-I – RMG-I cells, luciferase, cherry-pick, dose response (AID 687027).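 Note: luciferase reporter driven by Pax8 target thyroperoxidase promoter measured by SteadyGlo luminescence.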 The test is classed as functional, cell-based.
Test [5] can be described thus: toxicity toward HepG2 liver cells – cell-based, plate reader, cherry-pick, antagonist series, cytotoxicity control, dose response (AID 743416). The class given is functional.
Test [6] is described as follows: viability loss in HEK293 cells – cell-based, plate reader, cherry-picked samples, cytotoxicity control, dose response (AID 743446). The class given is functional.
Test [7] can be described thus: A549 cell cytotoxicity, dose response, cytotoxicity control, plate reader, cherry-pick, antagonist series (AID 743412). The test is classed as functional, cell-based.
A short description of test [8]: general cell-killing toxicity readout – plate reader, dry powder samples, cytotoxicity control for PAX8 inhibitor project, dose response (AID 743021). The test is classed as functional, cell-based.
The nature of test [9]: blockade of melanocortin 4 receptor signaling – cell-based, plate reader, cherry pick, counter-screen for LGR2 antagonist project, dose response (AID 743444).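 Note: transfected HEK 293 cells stimulated with alpha-MSH peptide; potency of inhibitors of the alpha-MSH evoked signal.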 The test is classed as functional. (In general: Counterscreens check selectivity or assay interference.)
A short description of test [10]: Reduced DLD-1 viability, concentration-response, CellTiter-Glo luminescence (AID 1117352). The class given is functional. On the technique in general: Cellular ATP, detected with luciferase, serves as a proxy for viable cell number.
Test [11] can be described thus: cytotoxicity toward Colo320 cells – cell-based, CellTiter-Glo luminescence, IC50, dose response (AID 1117334). The class given is functional. As to conditions: COLO 320.
Test [12] can be described thus: CellTiter-Glo luminescence survival assay, SW480 colon tumor line, concentration-response curve, half-maximal inhibitory concentration (AID 1117338). The test is classed as functional.
Test [13] in a line: SNU-C1 cell viability reduction, dose response, CellTiter-Glo luminescence (AID 1117323). The class given is functional, cell-based.
The nature of test [14]: cytotoxicity toward HT-29 cells – cell-based, CellTiter-Glo luminescence, IC50, dose response (AID 1117330). The test is classed as functional.
Test [15] is described as follows: HCT116 cell viability decrease, GSK3B pretreatment – CellTiter-Glo, IC50, dose response (AID 1117339). The test is classed as functional. As to conditions: HCT-116.
A short description of test [16]: rise of 2N DNA cells, HeLa – IC50, dose response (AID 1117349). The class given is functional, cell-based.
Test [17] can be described thus: rise of 4N DNA cells, HeLa – IC50, dose response (AID 1117351). The test is classed as functional, cell-based.
Test [18] can be described thus: RKO cell viability reduction, dose response, CellTiter-Glo luminescence (AID 1117322). The class given is functional.
A short description of test [19]: cytotoxicity toward HCT116 cells – cell-based, CellTiter-Glo luminescence, IC50, dose response (AID 1117332). The class given is functional. The conditions noted are these: HCT-116.
Test [20] in a line: P. falciparum Dd2 growth inhibitors, dose response, SYBR Green, cherry-picked samples (AID 1159567). The test is classed as functional, cell-based.
The nature of test [21]: toxicity to human hepatoma HepG2 cells – cell-based, cherry-picked samples, cytotoxicity control, dose response (AID 1159577). The test is classed as functional.
The nature of test [22]: Dd2 malaria parasite growth inhibition potency – SYBR Green, dry powder samples, dose response (AID 1159566).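 Note: potency for growth inhibition with lower SYBR green DNA signal.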 The class given is functional, cell-based.
Test [23] can be described thus: growth inhibition of PfATP4-mutant resistant parasites – NITD609-resistant line, SYBR Green, dry powder, dose response (AID 1159571).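 Note: parasites synchronized at ring stage by sorbitol before testing.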 The class given is functional, cell-based.
A short description of test [24]: toxicity to human HepG2 hepatoma cells – cell-based, plate reader, dry powder samples, cytotoxicity control, dose response (AID 1159569).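 Note: inhibitor potency with signal falling toward the positive control level.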 The class given is functional.
A short description of test [25]: growth inhibition of yeast DHODH-expressing 3D7 parasites – SYBR Green, dry powder samples, dose response (AID 1159570).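 Note: parasite growth measured after 72 hours of compound exposure.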 The test is classed as functional, cell-based.

Calls of active or inactive are those of the source.

Paired box protein Pax-8, sequence (Q06710 whole entry): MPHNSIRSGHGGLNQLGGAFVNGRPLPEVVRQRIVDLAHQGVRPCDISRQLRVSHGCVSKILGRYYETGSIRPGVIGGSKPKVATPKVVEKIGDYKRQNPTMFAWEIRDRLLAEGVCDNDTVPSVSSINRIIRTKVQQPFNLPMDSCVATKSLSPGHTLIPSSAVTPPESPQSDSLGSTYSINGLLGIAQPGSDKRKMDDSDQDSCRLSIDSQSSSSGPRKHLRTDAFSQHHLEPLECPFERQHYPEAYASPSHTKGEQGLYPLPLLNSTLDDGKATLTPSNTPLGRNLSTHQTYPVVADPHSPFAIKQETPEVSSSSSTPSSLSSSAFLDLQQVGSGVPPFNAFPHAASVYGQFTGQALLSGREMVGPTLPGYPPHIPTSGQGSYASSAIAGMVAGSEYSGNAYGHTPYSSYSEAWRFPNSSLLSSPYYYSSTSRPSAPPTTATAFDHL

One may read the IC50 as the concentration needed to halve the response being measured. On to `Cn1c(CCNC(=O)C2CCCCC2)nc2cc(NC(=O)c3cccs3)ccc21`, for which the IC50 in [1] was > 83.3 µM (inactive); in test [2], > 109 µM (inactive).
As a reminder, the AC50 is the concentration at which the activity in the assay is half-maximal. Take `Cc1nc(O)c(C(=O)/C=C/c2ccccc2)c2c1CCCC2`: the AC50 in [3] is 8.12 µM (active).
With `COc1ccc(-n2nnnc2C(CCc2ccccc2)N2CCC(n3c(O)nc4ccccc43)CC2)cc1` (centres undefined), the AC50 in test [4] was 11.3 µM (active); at Paired box protein Pax-8 it was 7.54 µM (active); in [5], > 52 µM (inactive); in test [3], 21.4 µM (active); in test [6], 10.1 µM (active); in test [7], 14.7 µM (active). Besides, the half-maximal activity concentration (AC50) in test [8] was 24.5 µM (active); in test [9] it was 9.43 µM (active).
On to `CN1CCC(Nc2ncc3ncnc(Nc4ccc(F)c(Cl)c4)c3n2)CC1`, for which the half-maximal inhibitory concentration (IC50) was 2.29 µM (active) in test [10]; 11.7 µM (inactive) in test [11]; 2.35 µM (active) in test [12]; 12 µM (inactive) in [13]; 4 µM (active) in test [14]; 3.38 µM (active) in [15]. The IC50 is > 10 µM (inactive) in [16], > 10 µM (inactive) in test [17], 3.17 µM (active) in test [18] and > 20 µM (inactive) in test [19].
`COc1ccccc1CN1C[C@@H]2N[C@H](C1)[C@@H]2c1ccc(-c2ccccc2OC)cc1`: the half-maximal activity concentration (AC50) is 4.29 µM (active) in test [20] and 11.6 µM (active) in [21].
In the case of `C[C@@H]1CN([C@@H](C)CO)C(=O)c2cccc(NC(=O)c3nc4ccccc4s3)c2O[C@@H]1CN(C)C(=O)Nc1cccc2ccccc12`, the AC50 was 2.51 µM (active) in test [22]; 2 µM (active) in test [23]; 71.7 µM (active) in [24]; 2.73 µM (active) in test [25]; 2.98 µM (active) in [20].
As to `O=C(c1ccc2c(c1)OCO2)N1CC(=O)N2[C@H](CO)[C@H](c3ccc(C#Cc4ccccc4)cc3)[C@H]2C1`, the AC50 is 1.68 µM (active) in test [22]; 1.93 µM (active) in test [23]; 25 µM (active) in [24]; 5.73 µM (active) in test [25]; 2.52 µM (active) in [20]; 26.3 µM (active) in test [21].
For `O=C(O)c1ccc(-n2nc(-c3ccccc3O)nc2-c2ccccc2O)cc1` [DEFERASIROX], the IC50 in [10] is 0.651 µM (active); in test [11], 0.409 µM (active); in test [12] it was 0.0776 µM (active); in test [13] it was 0.233 µM (active); in test [14], 0.516 µM (active); in test [15], 0.242 µM (active). For the same compound, the IC50 in test [16] is > 10 µM (inactive); in [17], > 10 µM (inactive); in test [18], 0.1 µM (active); in test [19], 0.438 µM (active).
